From paper doi:10.1101/2021.08.31.458471v1 (biorxiv, 2021) come the findings set out here.

For test [1], the target named is McpA signaling domain (McpAc) (Bacillus subtilis, UniProt P39214). As to the kind of experiment: biochemical.
Test [2] addresses McpB signaling domain (Bacillus subtilis, UniProt P39215). The following applies: 20 µM protein, 2 mM benzene, PBS in D2O pH 7.4, 298 K.

Sequence of McpA signaling domain (McpAc) (P39214 359-661): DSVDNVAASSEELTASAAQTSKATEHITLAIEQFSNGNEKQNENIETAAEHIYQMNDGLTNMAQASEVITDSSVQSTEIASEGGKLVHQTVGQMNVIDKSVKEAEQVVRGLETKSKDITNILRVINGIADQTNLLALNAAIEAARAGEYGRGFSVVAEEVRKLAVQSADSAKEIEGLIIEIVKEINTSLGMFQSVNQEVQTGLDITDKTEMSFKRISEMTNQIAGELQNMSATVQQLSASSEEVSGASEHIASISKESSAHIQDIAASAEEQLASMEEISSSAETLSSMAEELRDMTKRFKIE
Sequence of McpB signaling domain (P39215 359-662): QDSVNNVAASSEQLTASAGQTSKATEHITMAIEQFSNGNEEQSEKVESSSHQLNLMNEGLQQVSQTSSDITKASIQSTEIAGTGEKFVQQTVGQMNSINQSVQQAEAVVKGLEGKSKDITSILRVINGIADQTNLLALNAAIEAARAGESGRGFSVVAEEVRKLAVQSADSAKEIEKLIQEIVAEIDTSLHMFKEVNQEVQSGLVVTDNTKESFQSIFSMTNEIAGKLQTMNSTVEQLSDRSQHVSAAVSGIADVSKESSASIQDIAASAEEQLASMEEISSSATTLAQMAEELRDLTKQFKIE

The term Kd denotes the equilibrium constant for the complex coming apart. Molecule `Oc1ccccc1` [phenol] registered a dissociation constant Kd in test [1] of 4.8 mM. This lies in the millimolar range.
Regarding `c1ccccc1` [benzene], the STD-AF in test [2] was found to be 16.4%.
